The text below walks through data of US20230002324A1, “NAPHTHOQUINONE DERIVATIVES FOR TREATMENT OF OXIDATIVE STRESS DISORDERS” (PTC THERAPEUTICS, INC., priority 2019, published 2023).

Read-outs that look alike come from different tables or passages of the source.

Data set [1] deals with T1, CYP3A4 (Homo sapiens, UniProt P08684).
T1 construct: from tissue; host or cells: pooled human liver microsomes
Put plainly: CYP450 Inhibition Assay 1 (pooled human liver microsomes, midazolam). In kind it is in vitro ADME. The following applies: for IC50: HLM 0.05 mg/mL, midazolam 5 μM, 5 min; for CYP3A4 inhibition, in words: comment on Table 4. How it is done: The CYP450 inhibition assay provides in vitro assessment of the inhibitory potential of the test compounds against cytochrome P450 enzymes. Selective substrates were incubated with pooled human liver microsomes (HLM) as single substrates. All assays employed 100 mM potassium phosphate buffer at pH 7.4.
The assays were performed in a 96-well PCR plate in a final volume of 140 μL at 37° C. Test compounds were evaluated at seven concentrations to obtain IC50 values, with a final concentration of 0.1% DMSO in the incubation (total organic solvent at 1% in the incubation). Reactions were initiated by the addition of NADPH. After the enzyme-specific incubation time had elapsed, an aliquot from that enzyme reaction was quenched in Acetonitrile with 0.2% Formic Acid. Supernatant from the quenched reactions was diluted with an equal volume of water, prior to analysis by LC-MS/MS.
All samples were analyzed on LC-MS/MS using an AB Sciex 6500+ instrument equipped with electrospray ionization source, coupled to a Shimadzu Nexera X2 system. Samples were separated using a Waters UPLC HSS T3, 1.8 μm column, 1×50 mm (catalog #186003535) at a flow rate of 200 μL/min. Injection volume was 2 μL.
Background: Microsomes from liver hold many membrane-bound enzymes, among them those of drug oxidation.

Data set [2] deals with normal human fibroblasts (NHF, GM21811). Put plainly: NHF GM21811 RSL3 challenge cell survival (rescue) assay. The following applies: Fibroblast, 48 h, read-out: NHF GM21811 RSL3 Survival EC50. Type of data set: cell-based. In a few lines: (§1)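 Q7 (33° C.) or NHF (37° C.) cells, 3,000/well, attached 5 h, then test compounds at varying final concentrations followed within 15 min by RSL3 (2 micromolar final); 0.3% DMSO. Assay medium identical to growth medium.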

Data set [3] has as its system Q7 cells (ST HDH Q7/7; immortalized mouse striatal cells). Put plainly: Q7 RSL3 challenge cell survival (rescue) assay. To be noted: 18 h, read-out: Q7 RSL3 Survival EC50. In kind it is cell-based. In a few lines: as §1
Data set [4] addresses T1, CYP3A4. Put plainly: CYP450 Inhibition Assay 2 (pooled human liver microsomes, 5 concentrations). The following applies: Table 3, HLM 0.05 mg protein/mL, 10 min reaction; for IC50 at 10 min: human, pooled human liver microsomes. Type of data set: in vitro ADME. How it is done:
In an alternative experimental design, test compounds were evaluated at 5 concentrations in a 96 well assay plate. Initial combination with pooled human liver microsomes (0.05 mg protein/mL) was followed by a 5 minute incubation. […] The assay plate was incubated for an additional 30 minutes before the reaction was initiated with the addition of NADPH. After 10 minutes of reaction time, the reaction was quenched and samples were analyzed in a similar manner as described above.

For data set [5], the system named is Q7 cells (ST HDH Q7/7; immortalized mouse striatal cells). Put plainly: Q7 Cystine Deprivation cell survival (rescue) assay. Type of data set: cell-based. To be noted: 18 h, read-out: Q7 Cystine Deprivation Survival EC50. In outline:
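Cells were seeded at 3,000/well and allowed to attach for 5 h at 33 °C. Wells were then washed twice with PBS and switched to cystine-free DMEM containing FBS, 4 mM L-glutamine, 1 mM pyruvate and 30 mg/L methionine to induce ferroptotic death. Compounds were scored for survival rescue.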

[6] abbreviates: NHF cells, RSL3 2 micromolar, Cell Titer Glo.
Setting [7] is: Q7 cells, RSL3 2 micromolar, Cell Titer Glo.
[8] abbreviates: Q7 cells, cystine-free medium, Cell Titer Glo, 50% relative viability vs Vitamin K2 (1 micromolar).

T1 sequence (P08684 whole entry): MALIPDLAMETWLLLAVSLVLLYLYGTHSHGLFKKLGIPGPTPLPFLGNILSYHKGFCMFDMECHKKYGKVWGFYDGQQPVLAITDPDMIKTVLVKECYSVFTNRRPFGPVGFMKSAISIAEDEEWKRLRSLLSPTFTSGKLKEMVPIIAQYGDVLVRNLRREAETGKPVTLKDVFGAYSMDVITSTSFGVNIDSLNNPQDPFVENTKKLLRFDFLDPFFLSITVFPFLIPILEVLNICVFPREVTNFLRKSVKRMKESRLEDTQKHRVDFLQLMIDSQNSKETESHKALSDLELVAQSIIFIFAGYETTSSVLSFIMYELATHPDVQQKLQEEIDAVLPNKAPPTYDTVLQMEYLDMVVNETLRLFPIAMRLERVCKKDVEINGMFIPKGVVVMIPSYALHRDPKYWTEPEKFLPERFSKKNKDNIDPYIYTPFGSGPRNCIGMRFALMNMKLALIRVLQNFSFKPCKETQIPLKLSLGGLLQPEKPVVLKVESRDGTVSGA

On CYP3A4 [1] (Table 4 comparison), `CC1=C(Cc2cccnc2)C(=O)c2ccccc2C1=O` [Comparison Compound 1, reference compound] had an IC50 of 0.421 µM. The “CYP3A4 inhibition, in words” value on CYP3A4 [1] is on record as “very potent inhibitor of CYP3A4”.

On to `CC1=C(Cc2ccncc2)C(=O)c2ccccc2C1=O` [Comparison Compound 2, reference compound], for which, at CYP3A4 [1] (Table 4 comparison), the IC50 is 1.07 µM. Besides, the “CYP3A4 inhibition, in words” value at CYP3A4 [1] is given as “potent CYP3A4 inhibitor”.

`CC1=C(Cc2ccc(C(F)(F)F)cn2)C(=O)c2ccccc2C1=O` [Example 1, 2-methyl-3-((5-(trifluoromethyl)pyridin-2-yl)methyl)naphthalene-1,4-dione]: the EC50 in data set [2] (setting [6]), in data set [3] (setting [7]) and in data set [5] (setting [8]) was less than 0.05 µM throughout. In addition, the figures for the concentration for half-maximal inhibition (IC50) at CYP3A4 [1] (Table 3) and at CYP3A4 [4] were 5.78 µM and 35.7 µM, respectively.

Regarding `CC1=C(Cc2ccccn2)C(=O)c2ccccc2C1=O` [Example 23, 2-methyl-3-(pyridin-2-ylmethyl)naphthalene-1,4-dione], the results for the IC50 on CYP3A4 [1] (Table 3) and on CYP3A4 [4] were 22.8 µM and 12.7 µM, respectively. Further, the EC50 in data set [5] (setting [8]) is less than 0.05 µM.

Turning to `CCC1=C(Cc2ccc(C(F)(F)F)cn2)C(=O)c2ccccc2C1=O` [Example 26, 2-ethyl-3-((5-(trifluoromethyl)pyridin-2-yl)methyl)naphthalene-1,4-dione], the EC50 in data set [2] (setting [6]), in data set [3] (setting [7]) and in data set [5] (setting [8]) was less than 0.05 µM throughout. The IC50 on CYP3A4 [4] was 14.2 µM.

Consider `CC(C)C1=C(Cc2ccc(C(F)(F)F)cn2)C(=O)c2ccccc2C1=O` [Example 30, 2-isopropyl-3-((5-(trifluoromethyl)pyridin-2-yl)methyl)naphthalene-1,4-dione], for which the EC50 in data set [2] and in data set [5] was less than 0.05 µM throughout. Also, the IC50 at CYP3A4 [4] worked out at 10.3 µM.

In the case of `CCC1=C(Cc2ccc(C(F)(F)F)cn2)C(=O)c2c(F)ccc(F)c2C1=O` [Example 55, 2-ethyl-5,8-difluoro-3-((5-(trifluoromethyl)pyridin-2-yl)methyl)naphthalene-1,4-dione], the EC50 in data set [2] and in data set [3] was less than 0.05 µM throughout. The compound further gave an IC50 against CYP3A4 [1] (Table 3) of 3.68 µM.

At CYP3A4 [1] (Table 3), `[2H]C([2H])([2H])C1=C(Cc2ccc(C(F)(F)F)cn2)C(=O)c2cc(F)cc(F)c2C1=O` [Example 57, 5,7-difluoro-3-(methyl-d3)-2-((5-(trifluoromethyl)pyridin-2-yl)methyl)naphthalene-1,4-dione] yielded an IC50 of 1.49 µM. Also, in data set [3] (setting [7]), the EC50 was less than 0.05 µM.

For `CC1=C(Cc2ccc(C(F)(F)F)c(C#N)n2)C(=O)c2ccc(F)cc2C1=O` [Example 70, 6-((6-fluoro-3-methyl-1,4-dioxo-1,4-dihydronaphthalen-2-yl)methyl)-3-(trifluoromethyl)picolinonitrile], the EC50 in data set [2] (setting [6]) and in data set [3] (setting [7]) was less than 0.05 µM each time. Further, the midpoint of inhibition at CYP3A4 [1] (Table 3), the IC50, lay at 4.14 µM.

For the compound `CC1=C(Cc2ccc(C(F)(F)F)c(C#N)n2)C(=O)c2c(F)ccc(F)c2C1=O` [Example 79, 6-((5,8-difluoro-3-methyl-1,4-dioxo-1,4-dihydronaphthalen-2-yl)methyl)-3-(trifluoromethyl)picolinonitrile], the concentration for a half-maximal effect (EC50) in data set [2] (setting [6]) and in data set [3] (setting [7]) was less than 0.05 µM each time. Moreover, at CYP3A4 [1] (Table 3), it took 2.4 µM to reach half-maximal inhibition (IC50).

As to `CCC1=C(Cc2ccc(C(F)(F)F)c(C#N)n2)C(=O)c2ccc(F)cc2C1=O` [Example 81, 6-((3-ethyl-6-fluoro-1,4-dioxo-1,4-dihydronaphthalen-2-yl)methyl)-3-(trifluoromethyl)picolinonitrile], the EC50 in data set [2] (setting [6]) and in data set [3] (setting [7]) was less than 0.05 µM throughout. The IC50 on CYP3A4 [1] (Table 3) worked out at 11 µM.

On to `CCC1=C(Cc2ccc(C(F)(F)F)c(C#N)n2)C(=O)c2c(F)ccc(F)c2C1=O` [Example 83, 6-((3-ethyl-5,8-difluoro-1,4-dioxo-1,4-dihydronaphthalen-2-yl)methyl)-3-(trifluoromethyl)picolinonitrile], for which the midpoint of inhibition against CYP3A4 [1] (Table 3), the IC50, lay at 2.73 µM. Moreover, the EC50 in data set [3] (setting [7]) is less than 0.05 µM.

As to `N#Cc1nc(CC2=C(C3CC3)C(=O)c3c(F)ccc(F)c3C2=O)ccc1C(F)(F)F` [Example 84, 6-((3-cyclopropyl-5,8-difluoro-1,4-dioxo-1,4-dihydronaphthalen-2-yl)methyl)-3-(trifluoromethyl)picolinonitrile], the concentration for a half-maximal effect (EC50) in data set [2] (setting [6]) and in data set [3] (setting [7]) was less than 0.05 µM in each case. This compound also had an IC50 against CYP3A4 [1] (Table 3) of 1.56 µM.

Consider `CCC1=C(Cc2ccc(C(F)(F)F)c(C#N)n2)C(=O)c2cc(F)cc(F)c2C1=O` [Example 86, 6-((3-ethyl-5,7-difluoro-1,4-dioxo-1,4-dihydronaphthalen-2-yl)methyl)-3-(trifluoromethyl)picolinonitrile], for which the EC50 in data set [2] (setting [6]) and in data set [3] (setting [7]) was less than 0.05 µM throughout. Further, the IC50 on CYP3A4 [1] (Table 3) was 6.66 µM.

Regarding `CC1=C(Cc2ccc(C(N)=O)cn2)C(=O)c2ccccc2C1=O` [Example 101, 6-((3-methyl-1,4-dioxo-1,4-dihydronaphthalen-2-yl)methyl)nicotinamide], the IC50 at CYP3A4 [4] was determined as 23 µM. In addition, in data set [5] (setting [8]), the EC50 was less than 0.05 µM.

Regarding `CCN(C(=O)c1ccc(CC2=C(C)C(=O)c3ccccc3C2=O)nc1)C(C)C` [Example 102, N-ethyl-N-isopropyl-6-((3-methyl-1,4-dioxo-1,4-dihydronaphthalen-2-yl)methyl)nicotinamide], the IC50 at CYP3A4 [4] is 8.8 µM. The EC50 in data set [5] (setting [8]) was less than 0.05 µM.

For `CC1=C(Cc2ccc(C(=O)NC3(C)CCC3)cn2)C(=O)c2ccccc2C1=O` [Example 103, 6-((3-methyl-1,4-dioxo-1,4-dihydronaphthalen-2-yl)methyl)-N-(1-methylcyclobutyl)nicotinamide], on CYP3A4 [4], the IC50 turned out to be 41.5 µM. In data set [5] (setting [8]), the EC50 is 0.25 to 1 µM.

For `CC1=C(Cc2ccc(C(=O)N(C)C(C)C)cn2)C(=O)c2ccccc2C1=O` [Example 104, N-isopropyl-N-methyl-6-((3-methyl-1,4-dioxo-1,4-dihydronaphthalen-2-yl)methyl)nicotinamide], at CYP3A4 [4], the IC50 was found to be 20.7 µM. The EC50 in data set [5] (setting [8]) was less than 0.05 µM.

Turning to `CC1=C(Cc2ccc(C(=O)NCC3CC3)cn2)C(=O)c2ccccc2C1=O` [Example 105, N-(cyclopropylmethyl)-6-((3-methyl-1,4-dioxo-1,4-dihydronaphthalen-2-yl)methyl)nicotinamide], the IC50 at 10 min on CYP3A4 [4] is no less than 50 µM. The EC50 in data set [5] (setting [8]) fell in the range of 0.05 to 0.25 µM.

For the compound `CCCC1=C(Cc2ccc(C(F)(F)F)cn2)C(=O)c2ccccc2C1=O` [Example 109, 2-propyl-3-((5-(trifluoromethyl)pyridin-2-yl)methyl)naphthalene-1,4-dione], at CYP3A4 [4], the IC50 is 15.6 µM. In data set [5] (setting [8]), the EC50 is less than 0.05 µM.

Turning to `CC1=C(Cc2ccc(C#N)cn2)C(=O)c2ccccc2C1=O` [Example 123, 6-((3-methyl-1,4-dioxo-1,4-dihydronaphthalen-2-yl)methyl)nicotinonitrile], the IC50 at 10 min at CYP3A4 [4] is no less than 50 µM. Further, the EC50 in data set [5] (setting [8]) is less than 0.05 µM.

`CC1=C(Cc2ccc(C(F)(F)F)cn2)C(=O)c2c(ccc(F)c2F)C1=O` [Example 128, 5,6-difluoro-2-methyl-3-((5-(trifluoromethyl)pyridin-2-yl)methyl)naphthalene-1,4-dione] registered an IC50 at CYP3A4 [1] (Table 3) of 1.3 µM. Further, the half-maximal effective concentration (EC50) in data set [3] (setting [7]) is less than 0.05 µM.

The IC50 is the concentration needed to halve the response being measured. One may read the EC50 as the concentration at which the effect is half-maximal.
